Measured values as given in patent US4771068A, “Mitomycin derivatives having anti-tumor and antibacterial utility” (priority 1985, dated 1988).
≈ marks a conversion by molar mass, not a printed value.

Legend:
[1] = system: Streptococcus faecalis ATCC 10541; assay: Antibacterial activity (minimum growth inhibitory concentration), agar dilution method; type: cell-based; conditions: Enterococcus faecalis, ATCC10541; Streptococcus faecalis ATCC 10541, pH 7.0, agar dilution method; read-out: minimum growth inhibitory concentration, SF
Protocol: (§1) Antibacterial activities of Compounds (I) against various bacteria are shown by the minimum growth inhibitory concentration (μg/ml) in Table 3. The minimum growth inhibitory concentration was measured at pH 7.0 according to the agar dilution method. In the table, bacteria are indicated by the following letters.
SF: Streptococcus faecalis ATCC 10541

[2] = system: Staphylococcus aureus ATCC 6538P; assay: as above; type: cell-based; conditions: ATCC6538P, pH 7.0, agar dilution method, read-out: minimum growth inhibitory concentration, SA
Protocol: as §1
SA: Staphylococcus aureus ATCC 6538P

[3] = system: Bacillus subtilis 10707; assay: as above; type: cell-based; conditions: Bacillus subtilis 10707, pH 7.0, agar dilution method; read-out: minimum growth inhibitory concentration, BS
Protocol: as §1
BS: Bacillus subtilis 10707

[4] = system: Proteus vulgalis ATCC 6897; assay: as above; type: cell-based; conditions: pH 7, read-out: minimum growth inhibitory concentration, PV
Protocol: as §1
PV: Proteus vulgalis ATCC 6897

[5] = system: Klebsiella pneumoniae ATCC 10031; assay: as above; type: cell-based; conditions: ATCC10031; Klebsiella pneumoniae ATCC 10031, pH 7.0, agar dilution method; read-out: minimum growth inhibitory concentration, KP
Protocol: as §1
KP: Klebsiella pneumoniae ATCC 10031

[6] = system: Sarcoma 180 solid tumour; assay: animal or person; conditions: for CIc: CI of test compound divided by CI of mitomycin C as control in the same condition; for ED50: Mus musculus, Sarcoma-180, iv, 168 h; for CI (LD50/ED50): chemotherapeutic index
Excerpt: CIc : Value given by division of CI of each test compound by CI of
determination of antitumour activity of the test compound. A CIc
5×10^6 cells of Sarcoma 180 solid tumour were intraperitoneally implanted into ddY mice. 7 days later, ascites cells were sampled. The cells were washed once with a sterilized physiological sodium chloride solution and were used to prepare a cell suspension containing 5×10^7 cells per ml with a sterilized physiological sodium chloride solution. On each occasion, 0.1 ml of the cell suspension was subcutaneously implanted into the right axilla of a male mouse (ddY strain; body weight 20±2 g).
The anti-tumour activity was determined in the following manner. 7 days after the implantation, the major axis (a) and the minor axis (b) of the tumour were measured to calculate a value of "a×b^2 /2" which corresponds to the volume of the tumour. The anti-tumour activity was expressed by the ratio (T/C) of the volume (T) of the tumours of the group of animals administered with the test compound to the corresponding volume (C) of tumours of the untreated animals.
On graph paper, T/C was indicated by an arithmetic scale on the longitudinal axis and the administered amount of the test compound was indicated by a logarithmic scale on the lateral axis.

[7] = Acute toxicity; conditions: mouse, in vivo, ip; ddY mice, intraperitoneally once, 14 days observation
Protocol: Each animal of the test group consisting of 5 ddY mice was administered intraperitoneally once with a test compound. […] The LD50 was determined by Beherns Kaerber's method.

[8] = system: peripheral leucocytes; assay: Effect on the peripheral leucocytes number; type: in vivo, mouse (ddY strain); conditions: minimum dose reducing peripheral leucocytes number to 4000/mm^3; tumour-carrying ddY mice, intraperitoneal, 4 days after administration
Protocol: WBC4000 : Minimum dose of a test compound which reduces the
peripheral leucocytes number to 4000/mm^3.
Sarcoma 180 solid tumour cells (5×10^6) were subcutaneously implanted into the right axilla of each mouse (body weight 20±2 g) of a group consisting of 5 male mice (ddY strain). 24 hours after implantation,a test compound was intraperitoneally administered to each animal. 4 days after the administration, blood (each 0.02 ml) was collected from the suborbital plexus vein of each tumour-carrying animal. The collected sample of blood was dispersed in 9.98 ml of Cell-Kit Seven solution. One drop of saponin solution was added to the sample to dissolve erythrocytes and then a microcell counter was used to count the number of leucocytes. […] The relationship between the number of peripheral leucocytes and the dose of the test compound was plotted and the dose (i.e., WBC4000) corresponding to 4000 peripheral leucocytes/mm^3 (about half the number of leucocytes of normal mice) was obtained.

[9] = Solubility in water; type: physicochemical; conditions: aqueous buffer; 0.03M phosphate buffer (pH 7.0), 22° C., 15 minutes
Protocol: 1 mg of a test compound was added to 100 μl of 0.03M phosphate buffer (pH 7.0). The mixture was stirred at 22° C. for 15 minutes and filtered through Ekicrodisc 3 (disposable filter unit, Gelman Sciences Japan Co.) to remove insoluble matters. The filtrate is a saturated solution of the test compound. Predetermined amount of the saturated solution was injected into a high performance liquid chromatograph [column: YMC-A212 (C8) .phi.6 mm, 150 mm, eluting solvent: 0.01M-ammonium acetate/methanol, wave length for detection: 254 nm] and peak area of the chromatogram was calculated. Separately, a solution of the test compound in methanoL having a certain concentration of the compound was similarly subjected to the chromatography to make the calibration curve. The solubility of the test compound was calculated by the calibration curve.

| SMILES | MIC [1] [µg/mL] | MIC [2] [µg/mL] | MIC [3] [µg/mL] | MIC [4] [µg/mL] | MIC [5] [µg/mL] | CIc [6] | ED50 [6] [mg/kg] | CI (LD50/ED50) [6] | LD50 at 336 h [7] [mg/kg] | WBC4000 [8] [mg/kg] | solubility at 0.25 h [9] [µg/mL] |
| --- | --- | --- | --- | --- | --- | --- | --- | --- | --- | --- | --- |
| CC(=O)SCCNC1=C(C)C(=O)C2=C(C1=O)[C@H](COC(N)=O)[C@@]1(O)[C@@H]3[C@H](CN21)N3C (some centres unmarked) [Compound 2] | 3.1 (≈ 7.1 µM) | 3.1 (≈ 7.1 µM) | 0.78 (≈ 1.79 µM) | 25 (≈ 57.3 µM) | 6.3 (≈ 14.4 µM) | 1.9 | 5.6 | 4.7 | 26.3 | 14.1 | 8900 (≈ 20400 µM) |
| CO[C@@]12[C@H](COC(N)=O)C3=C(C(=O)C(C)=C(NCCSC(C)=O)C3=O)N1C[C@H]1[C@@H]2N1C (some centres unmarked) [Compound 3] | 0.039 (≈ 0.0866 µM) | 0.078 (≈ 0.173 µM) | < 0.02 | 20 (≈ 44.4 µM) | 1.3 (≈ 2.89 µM) | 0.88 | 5.6 | 1.7 | 9.4 | 11.0 | 3800 (≈ 8430 µM) |
| C=C1C2=C(C(=O)C(C)=C(NCCSC(C)=O)C2=O)N2C[C@H]3[C@H](N3C)[C@]12O (some centres unmarked) [Compound 4] | > 100 | 50 (≈ 133 µM) | 6.3 (≈ 16.8 µM) | 100 (≈ 266 µM) | 25 (≈ 66.6 µM) | 1.6 | 14.9 | 3.0 | 45 | 27.1 | 1900 (≈ 5060 µM) |
| CO[C@@]12[C@H](COC(N)=O)C3=C(C(=O)C(C)=C(NCCCSC(C)=O)C3=O)N1C[C@@H]1N[C@@H]12 [Compound 7] | < 0.02 | 0.039 (≈ 0.0866 µM) | < 0.02 | 2.5 (≈ 5.55 µM) | 0.31 (≈ 0.688 µM) | 0.88 | 5.2 | 2.2 | 11.3 | > 25 | 3500 (≈ 7770 µM) |
| CO[C@@]12[C@H](COC(N)=O)C3=C(C(=O)C(C)=C(NCCCCSC(C)=O)C3=O)N1C[C@@H]1N[C@@H]12 [Compound 9] | < 0.02 | 0.039 (≈ 0.084 µM) | < 0.02 | 5 (≈ 10.8 µM) | 0.31 (≈ 0.667 µM) | 1.6 | 21.7 | 4.1 | 90 | 65.2 | 2000 (≈ 4310 µM) |
| CO[C@@]12[C@H](COC(N)=O)C3=C(C(=O)C(C)=C(NCCCCCSC(C)=O)C3=O)N1C[C@@H]1N[C@@H]12 [Compound 10] | 0.039 (≈ 0.0815 µM) | 0.078 (≈ 0.163 µM) | 0.078 (≈ 0.163 µM) | 5 (≈ 10.4 µM) | 1.3 (≈ 2.72 µM) | > 1.1 | 37.5 | > 2.0 | > 75 | > 75 | 1000 (≈ 2090 µM) |
| CO[C@@]12[C@H](COC(N)=O)C3=C(C(=O)C(C)=C(NCCCCCCSC(C)=O)C3=O)N1C[C@@H]1N[C@@H]12 [Compound 11] | 0.16 (≈ 0.325 µM) | 0.16 (≈ 0.325 µM) | 0.16 (≈ 0.325 µM) | 2.5 (≈ 5.08 µM) | 1.3 (≈ 2.64 µM) | 3.9 | 27 | > 7.4 | > 200 | 31.3 | 210 (≈ 426 µM) |
| CO[C@@]12[C@H](COC(N)=O)C3=C(C(=O)C(C)=C(NCCSC(=O)c4ccccc4)C3=O)N1C[C@@H]1N[C@@H]12 [Compound 13] | 0.039 (≈ 0.0782 µM) | < 0.02 | < 0.02 | 5 (≈ 10 µM) | 1.3 (≈ 2.61 µM) | 0.91 | 4.1 | 1.5 | 6 | > 5 | 73 (≈ 146 µM) |
| CO[C@@]12[C@H](COC(N)=O)C3=C(C(=O)C(C)=C(NCCSC(=O)c4ccc(Br)cc4)C3=O)N1C[C@@H]1N[C@@H]12 [Compound 21] | 0.039 (≈ 0.0675 µM) | < 0.02 | < 0.02 | 5 (≈ 8.66 µM) | 1.3 (≈ 2.25 µM) | 1.9 | 2 | 4.7 | 9.4 | 11.5 | 4.7 (≈ 8.14 µM) |
| CO[C@@]12[C@H](COC(N)=O)C3=C(C(=O)C(C)=C(NCCSC(C)=S)C3=O)N1C[C@@H]1N[C@@H]12 [Compound 26] | < 0.02 | < 0.02 | < 0.02 | 0.63 (≈ 1.39 µM) | 0.078 (≈ 0.172 µM) | 1.6 | 1.2 | 5.5 | 6.6 | 7.6 | 260 (≈ 575 µM) |
